Like-named read-outs stand apart in the source and are kept apart here.
Key:
[1] = target: T1, HDAC7 (Homo sapiens, UniProt Q8WUI4); assay: HDAC biochemical activity measurement (fluorescent substrate deacetylation);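 on all read-outs here: fluorogenic deacetylation assay using acetyl-lysine substrate at 20 µM, enzyme and compound incubated 30 min at 37 °C, then developer added, fluorescence read at 360/460 nm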; conditions: for IC50 HDAC7: 37° C. 30 minutes
T1 sequence (Q8WUI4 1-952): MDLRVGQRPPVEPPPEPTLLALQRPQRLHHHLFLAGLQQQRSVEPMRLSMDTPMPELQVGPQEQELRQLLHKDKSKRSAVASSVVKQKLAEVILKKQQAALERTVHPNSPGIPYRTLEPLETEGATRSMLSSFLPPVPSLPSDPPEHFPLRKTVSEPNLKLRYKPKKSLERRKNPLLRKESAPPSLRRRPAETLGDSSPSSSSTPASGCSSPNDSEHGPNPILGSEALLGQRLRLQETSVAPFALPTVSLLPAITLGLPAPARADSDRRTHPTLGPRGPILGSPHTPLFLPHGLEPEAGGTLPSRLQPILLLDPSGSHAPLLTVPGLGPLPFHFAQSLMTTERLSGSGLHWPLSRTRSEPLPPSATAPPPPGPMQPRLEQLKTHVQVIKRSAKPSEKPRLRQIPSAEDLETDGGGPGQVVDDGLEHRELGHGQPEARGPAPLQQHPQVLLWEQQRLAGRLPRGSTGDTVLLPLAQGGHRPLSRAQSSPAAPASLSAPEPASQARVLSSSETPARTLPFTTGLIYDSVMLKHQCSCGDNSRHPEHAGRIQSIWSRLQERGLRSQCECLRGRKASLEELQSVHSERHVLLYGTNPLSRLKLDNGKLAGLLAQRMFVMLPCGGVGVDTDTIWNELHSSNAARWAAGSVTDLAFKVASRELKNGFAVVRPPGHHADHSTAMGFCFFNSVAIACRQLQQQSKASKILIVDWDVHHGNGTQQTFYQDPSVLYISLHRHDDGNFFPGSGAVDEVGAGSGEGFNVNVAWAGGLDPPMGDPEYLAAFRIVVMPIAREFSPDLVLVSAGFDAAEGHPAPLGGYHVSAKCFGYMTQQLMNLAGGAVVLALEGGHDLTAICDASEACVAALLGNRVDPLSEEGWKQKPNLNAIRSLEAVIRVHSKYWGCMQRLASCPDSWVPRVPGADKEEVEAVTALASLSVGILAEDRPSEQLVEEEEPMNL

[2] = tested on: A549 (human lung cancer cells); assay: MTT cancer cell growth inhibition; type: cell-based; conditions: Homo sapiens, A549, 72 h, MTT, 72 hours incubation, read-out: GI50 A54
Summary of the method: (§1)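 72 h exposure, final drug 10^−5–10^−10 M, triplicate wells; 1500 cells/well plated the day before; medium DMEM or 1640 + 10% FBS; 37° C./5% CO2. MTT (5 mg/ml stock) 4 h, DMSO solubilisation, A570 → % viability → GI50.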

[3] = tested on: BGC-823 (human gastric cancer cells); assay: MTT cancer cell growth inhibition; type: cell-based; conditions: Homo sapiens, BGC-823, 72 h, MTT, 72 hours incubation, read-out: GI50 BG
Summary of the method: as §1

[4] = tested on: Bel-7402 (human hepatoma cells); assay: MTT cancer cell growth inhibition; type: cell-based; conditions: Homo sapiens, Bel-7402, 72 h, MTT, 72 hours incubation, Bel-7402 cells; read-out: GI50 Bel-7402
Summary of the method: as §1

[5] = tested on: DU145 (human prostate cancer cells); assay: MTT cancer cell growth inhibition; type: cell-based; conditions: Homo sapiens, DU-145, 72 h, MTT, 72 hours incubation, read-out: GI50 Du1
Summary of the method: as §1

[6] = tested on: H1975 (non-small cell lung adenocarcinoma); assay: MTT cancer cell growth inhibition; type: cell-based; conditions: Homo sapiens, NCI-H1975, 72 h, MTT, 72 hours incubation, H1975 cells; read-out: GI50 H1975
Summary of the method: as §1

[7] = tested on: HCC827 (human non-small cell lung cancer cells); assay: MTT cancer cell growth inhibition; type: cell-based; conditions: Homo sapiens, HCC827, 72 h, MTT, 72 hours incubation, HCC827 cells; read-out: GI50 HCC827
Summary of the method: as §1

[8] = tested on: HT1080 (human fibrosarcoma cells); assay: MTT cancer cell growth inhibition; type: cell-based; conditions: Homo sapiens, HT-1080, 72 h, MTT, 72 hours incubation, read-out: GI50 HT1
Summary of the method: as §1

[9] = tested on: Hela (human cervical cancer cells); assay: MTT cancer cell growth inhibition; type: cell-based; conditions: Homo sapiens, HeLa, 72 h, MTT, 72 hours incubation, read-out: GI50 Hela
Summary of the method: as §1

[10] = tested on: Huh-7 (human hepatoma cells); assay: MTT cancer cell growth inhibition; type: cell-based; conditions: Homo sapiens, Huh-7, 72 h, MTT, 72 hours incubation, Huh-7 cells; read-out: GI50 Huh-7
Summary of the method: as §1

[11] = tested on: K562 (human leukemia cells); assay: MTT cancer cell growth inhibition; type: cell-based; conditions: Homo sapiens, K562, 72 h, MTT, 72 hours incubation, K562 cells; read-out: GI50 K562
Summary of the method: as §1

[12] = tested on: KBM-5 (human chronic myelogenous leukemia); assay: MTT cancer cell growth inhibition; type: cell-based; conditions: Homo sapiens, KBM5, 72 h, MTT, 72 hours incubation, KBM-5 cells; read-out: GI50 KBM-5
Summary of the method: as §1

[13] = tested on: KBM5-T315I (human chronic myelogenous leukemia); assay: MTT cancer cell growth inhibition; type: cell-based; conditions: Homo sapiens, 72 h, MTT, 72 hours incubation, KBM5-T315I cells; read-out: GI50 KBM5-T315I
Summary of the method: as §1

[14] = tested on: MCF-7 (human breast cancer cells); assay: MTT cancer cell growth inhibition; type: cell-based; conditions: Homo sapiens, MCF7, 72 h, 72 hours incubation, read-out: GI50 MCF
Summary of the method: as §1

[15] = tested on: MDA-MB-231 (breast cancer cells); assay: MTT cancer cell growth inhibition; type: cell-based; conditions: Homo sapiens, MDA-MB-231, 72 h, read-out: GI50 MDA-MB-231, MTT, 72 hours incubation, MDA-MB-231 cells
Summary of the method: as §1

[16] = tested on: MOLT-4 (human acute lymphoblastic leukemia cells); assay: MTT cancer cell growth inhibition; type: cell-based; conditions: Homo sapiens, MOLT-4, 72 h, MTT, 72 hours incubation, read-out: GI50 Mol
Summary of the method: as §1

[17] = tested on: N-87 (human gastric cancer cells); assay: MTT cancer cell growth inhibition; type: cell-based; conditions: Homo sapiens, 72 h, MTT, 72 hours incubation, N-87 cells; read-out: GI50 N-87
Summary of the method: as §1

[18] = tested on: PANC-1 (Pac-1, human pancreatic cancer cells); assay: MTT cancer cell growth inhibition; type: cell-based; conditions: Homo sapiens, PANC-1, 72 h, MTT, 72 hours incubation, read-out: GI50 PAN
Summary of the method: as §1

[19] = tested on: SGC-7901 (human gastric cancer cells); assay: MTT cancer cell growth inhibition; type: cell-based; conditions: Homo sapiens, SGC-7901, 72 h, MTT, 72 hours incubation, SGC-7901 cells; read-out: GI50 SGC-7901
Summary of the method: as §1

[20] = tested on: U937 (human leukemia cells); assay: MTT cancer cell growth inhibition; type: cell-based; conditions: Homo sapiens, U-937, 72 h, MTT, 72 hours incubation, read-out: GI50 U93
Summary of the method: as §1

[21] = tested on: lncap (prostate cancer cells); assay: MTT cancer cell growth inhibition; type: cell-based; conditions: Homo sapiens, LNCaP, 72 h, MTT, 72 hours incubation, read-out: GI50 lnca
Summary of the method: as §1

Row | Structure (SMILES) | IC50 HDAC7 [1] | GI50 ([2]; A549 cells) [nM] | GI50 ([3]; BGC-823 cells) [nM] | GI50 [4] [nM] | GI50 ([5]; DU145 cells) [nM] | GI50 [6] [nM] | GI50 [7] [nM] | GI50 ([8]; HT1080 cells) [nM] | GI50 ([9]; Hela cells) [nM] | GI50 [10] [nM] | GI50 [11] [nM] | GI50 [12] [nM] | GI50 [13] [nM] | GI50 ([14]; MCF-7 cells) [nM] | GI50 [15] [nM] | GI50 ([16]; MOLT-4 cells) [nM] | GI50 [17] [nM] | GI50 ([18]; PANC-1 cells) [nM] | GI50 [19] [nM] | GI50 ([20]; U937 cells) [nM] | also measured
1 | C/C=C1\NC(=O)c2cc(SC)cc(n2)CNC(=O)C[C@@H](/C=C/CCSC(=O)CCCCCCC)OC(=O)[C@H](C)NC1=O [Compound 181] | no activity | 50 | 30 | 38 | 60 | 35 | 41 | 60 | 70 | 37 | 23 | 15 | 33 | 70 | 18 | 80 | 36 | 40 | 28 | 20 | GI50 ([21]; lncap cells): 80 nM
2 | C/C=C1\NC(=O)c2nc(ccc2F)CNC(=O)C[C@@H](/C=C/CCS)OC(=O)[C@H](Cc2ccc(O)cc2)NC1=O [Compound 128] | no activity |  |  | 53 |  | 23 | 39 |  |  | 49 | 73 | 41 | 53 |  | 55 |  | 35 |  | 23 |  | GI50 [2]: 30 nM; GI50 [3]: 70 nM; GI50 [5]: 50 nM; GI50 [8]: 70 nM; GI50 [9]: 40 nM; GI50 [14]: 50 nM; GI50 [16]: 20 nM; GI50 [18]: 130 nM; GI50 [20]: 50 nM; GI50 [21]: 100 nM
3 | C/C=C1\NC(=O)c2nc(ccc2F)CNC(=O)C[C@@H](/C=C/CCS)OC(=O)[C@H](C(C)C)NC1=O [Compound 106] | no activity |  |  | 66 |  | 68 | 43 |  |  | 31 | 27 | 56 | 76 |  | 19 |  | 12 |  | 35 |  | GI50 [2]: 60 nM; GI50 [3]: 20 nM; GI50 [5]: 30 nM; GI50 [8]: 30 nM; GI50 [9]: 50 nM; GI50 [14]: 30 nM; GI50 [16]: 30 nM; GI50 [18]: 30 nM; GI50 [20]: 20 nM; GI50 [21]: 30 nM
4 | C/C=C1\NC(=O)c2ccc(SCC)c(n2)CNC(=O)C[C@@H](/C=C/CCSC(=O)CCCCCCC)OC(=O)[C@H](C(C)C)NC1=O [Compound 249] |  | 50 | 30 | 41 | 30 | 76 | 23 | 40 | 80 | 43 | 72 | 47 | 27 | 70 | 29 | 50 | 45 | 20 | 33 | 70 | IC50 (μM) HDAC7 [1]: no activity; GI50 ([21]; lncap cells): 40 nM
5 | C=C1NC(=O)c2cc(F)cc(n2)CNC(=O)C[C@@H](/C=C/CCS)OC(=O)[C@H](C)NC1=O [Compound 141] | no activity |  |  | 58 |  | 38 | 37 |  |  | 28 | 31 | 36 | 43 |  | 26 |  | 67 |  | 17 |  | GI50 [2]: 50 nM; GI50 [3]: 30 nM; GI50 [5]: 70 nM; GI50 [8]: 80 nM; GI50 [9]: 80 nM; GI50 [14]: 70 nM; GI50 [16]: 80 nM; GI50 [18]: 50 nM; GI50 [20]: 50 nM; GI50 [21]: 80 nM
6 | C/C=C1\NC(=O)c2nc(ccc2SC)CNC(=O)C[C@@H](/C=C/CCSC(=O)CCCCCCC)OC(=O)[C@H](C)NC1=O [Compound 180] | no activity | 30 | 50 | 48 | 60 | 97 | 13 | 50 | 100 | 17 | 49 | 29 | 57 | 20 | 56 | 50 | 62 | 30 | 35 | 70 | GI50 ([21]; lncap cells): 20 nM
7 | C/C=C1\NC(=O)c2ccc(SC)c(n2)CNC(=O)C[C@@H](/C=C/CCSC(C)=O)OC(=O)[C@H](Cc2ccc(O)cc2)NC1=O [Compound 203] | no activity | 30 | 80 | 23 | 40 | 65 | 23 | 60 | 30 | 22 | 35 | 53 | 26 | 40 | 73 | 30 | 77 | 30 | 43 | 20 | GI50 ([21]; lncap cells): 30 nM
